Test system: ergosterol pathway
Test: DNA microarray transcript profiling of clotrimazole-treated yeast

SMILES: Clc1ccccc1C(c1ccccc1)(c1ccccc1)n1ccnc1 [Clotrimazole, clotrimazole]
- YPL272C expression in response to drug treatment (titration plot, FIG. 13) (clotrimazole titration): induced to a high level
- number of genes upregulated by treatment (wild-type strain R174, YPD, 30° C., 12 hours, 0.03, 0.1, 1.0, and 3.0 ug/ml): ~500
